Results reported in patent US20250352615A1, “COMPOSITIONS AND METHODS FOR THE MODULATION OF PIEZO1 AND TRPV4” (Duke University, priority 2021, published 2025).

Experiments:
TRPV4 [1] = molecular target: T1, TRPV4 (Mus musculus, UniProt Q9EPK8); experiment: Calcium imaging of TRPV4-mediated [Ca2+]i in mouse PSCs; assay type: cell-based
T1 construct: endogenous in cells; host or cells: freshly isolated mouse pancreatic acini (C57BL/6J WT)
Protocol: (§1) Mouse and human PSCs were isolated using collagenase digestion. Modified Krebs Henseleit Buffer (KHB) solution (100 mL) was prepared as previously described by Romac et al., Nat. Commun. 9(1):1715 (2018). Pancreatic tissue was digested with 2 mg of collagenase NB 8 (SERVA, catalog 17456) dissolved in 10 mL of modified KHB solution containing 1 mg soybean trypsin inhibitor (SBTI 1-S; Millipore Sigma, catalog T9003) and 20 mg BSA (Thermo Fisher Scientific; BP1600-100). Digestion solution (5 mL) was used to inflate the pancreas. Pancreas with 5 mL of digestion solution was incubated in a shaking water bath for 10 minutes at 37° C. The solution was then discarded. The pancreas tissue was cut into small pieces and digested with fresh 5 mL digestion buffer. Tissue was incubated in a shaking water bath for 40 minutes at 37° C. The cells were then separated from tissue by pipetting up-down with a 10 mL pipette and passed sequentially through a 70 μm and a 40 μm cell strainer. The filtrate was centrifuged at 150×g for 3 minutes at room temperature. The cells were washed with 10 mL Leibovitz's media (Thermo Fisher Scientific, catalog 11415-064), passed through a 20 μm filter, and centrifuged at 80×g for 3 minutes at room temperature. The supernate was removed, and isolated stellate cells were plated on a thin-layered Matrigel-coated glass bottom culture plate (MatTek, P35G-0-14-C). Before plating the cells, Matrigel solution (Corning, catalog 354234) at a ratio of 1.5:100 DMEM/F12 (Thermo Fisher Scientific, catalog 11330-032) was poured onto the culture plate and incubated for 2 hr at 37° C. to form a thin layer of Matrigel coating. Matrigel mixture was removed, and the plate was washed with PBS before cells were plated. Cell culture media, DMEM/F12 with 5% FBS was used for mouse stellate cells. Fresh, human pancreatic tissue was digested with collagenase as described above with modifications. […] The cell viability following Yoda1 treatment was analyzed using the Live/Dead cell imaging kit (Thermo Fisher Scientific, catalog R37601). […]

TRPV4 [2] = molecular target: T2, TRPV4 (Homo sapiens, UniProt Q9HBA0); experiment: Calcium imaging of TRPV4-mediated [Ca2+]i in human PSCs; assay type: cell-based
T2 construct: Fresh, human pancreatic tissue was digested with collagenase as described above with modifications; endogenous in cells; host or cells: primary human pancreatic stellate cells from fresh human pancreatic tissue
Protocol: as §1, with “temperature.” for “temperature. The supernate was removed, and isolated stellate cells were plated on a thin-layered Matrigel-coated glass bottom culture plate (MatTek, P35G-0-14-C). Before plating the cells, Matrigel solution (Corning, catalog 354234) at a ratio of 1.5:100 DMEM/F12 (Thermo Fisher Scientific, catalog 11330-032) was poured onto the culture plate and incubated for 2 hr at 37° C. to form a thin layer of Matrigel coating. Matrigel mixture was removed, and the plate was washed with PBS before cells were plated. Cell culture media, DMEM/F12 with 5% FBS was used for mouse stellate cells. Fresh, human pancreatic tissue was digested with collagenase as described above with modifications.”

TRPV4 [3] = molecular target: T1, TRPV4; experiment: Calcium imaging of TRPV4-mediated [Ca2+]i in pancreatic acini (agonists, shear stress, Yoda1 sustained phase); assay type: cell-based
Protocol: (§2) Mouse pancreatic acini were isolated using a standard collagenase digestion protocol. Isolated acini were plated on a thin-layered, Matrigel-coated, glass-bottom, culture plate (MatTek, P35G-0-14-C). Freshly isolated acini were used in each experiment.
Parallel-plate fluid flow chambers (μ-Slide I 0.4 Luer, and μ-Slide I 0.2 Luer from Ibidi GmbH) were used to measure the shear stress-induced changes in intracellular calcium, mitochondrial depolarization, and trypsin activation. The constant flow rate with shear stress (T) was determined as follows: τ=η×[…] φ for μ-Slide I 0.4 Luer and τ=η×330.4 φ for μ-Slide I 0.2 Luer, where η=viscosity of the medium and φ=flow rate (according to the manufacturer's instructions, Ibidi).
(§3) Calcium imaging in pancreatic acini was performed as previously described. The chemicals used in calcium imaging experiments included the following: Yoda1 (Tocris; 5586), GsMTx4 (Abcam; ab141871), 5′,6′-EET (Santa Cruz Biotechnology; sc-221066), AA (Millipore Sigma; A3611), HC067047 (Tocris; 4100), GSK1016790A (Millipore Sigma; G0798), RN1734 (Tocris; 3746), AACOCF3 (Tocris; 1462), YM26734 (Tocris; 2522), GF109203X (Tocris; 0741), and CCK8 (Sigma-Aldrich).

KPCY cells = experiment: Orthotopic KPCY cell PDAC model with TRPV4 blocker via osmotic minipump; assay type: in vivo, mouse; settings: GSK2193874 20 mg/mL, 100 μL in subcutaneous osmotic minipump, 20 days; preliminary
Protocol: In this experimental model, KPCY cells (100,000 cells in 25 μL phosphate buffer saline pH 7, containing 1% Matrigel) are injected into the tail region of the pancreas with and without a TRPV4 blocker to investigate if a TRPV4 inhibitor can inhibit PDAC growth and stop cancer cell metastasis. For accurate and continuous dosing, the TRPV4 blocker is placed in an infusion osmotic minipump (ALZET) implanted subcutaneously. Mice are observed for 20 days. On day 20, liver and pancreas tissue are processed for microscopic imaging and quantification of mRNA levels. Serum samples are collected for analysis and quantification of pro-metastatic factors.
Tumor growth and serum SAA were measured 20 days after transplantation of KPCY cells into the pancreas, as described in FIG. 33. Mice were treated with GSK2193874 (20 mg/mL) dissolved in 6% cavitron saline buffer and 100 μL drug solution was loaded in an osmotic minipump implanted subcutaneously for 20 days.
KPCY cells resuspended in PBS+1% matrigel after trypsinization. Either 10,000 or 100,000 cells in 20 μl PBS were injected into the pancreatic tail. […]
Orthotopic injection of KPCY cells with implantation of micro-osmotic pump (Alzet, 1004) filled with either vehicle (6% cavitron W7 HP7 in water—Ashland) or GSK2193874 at 20 mg/mL. Mice were euthanized 20 days later, and organs were measured and harvested. […]

pancreatic acini = experiment: CCK-induced [Ca2+]i in pancreatic acini; assay type: cell-based, mouse; settings: HC067 1 μM; CCK 1 nM
Protocol: as §2, §3

T1 sequence (Q9EPK8 whole entry): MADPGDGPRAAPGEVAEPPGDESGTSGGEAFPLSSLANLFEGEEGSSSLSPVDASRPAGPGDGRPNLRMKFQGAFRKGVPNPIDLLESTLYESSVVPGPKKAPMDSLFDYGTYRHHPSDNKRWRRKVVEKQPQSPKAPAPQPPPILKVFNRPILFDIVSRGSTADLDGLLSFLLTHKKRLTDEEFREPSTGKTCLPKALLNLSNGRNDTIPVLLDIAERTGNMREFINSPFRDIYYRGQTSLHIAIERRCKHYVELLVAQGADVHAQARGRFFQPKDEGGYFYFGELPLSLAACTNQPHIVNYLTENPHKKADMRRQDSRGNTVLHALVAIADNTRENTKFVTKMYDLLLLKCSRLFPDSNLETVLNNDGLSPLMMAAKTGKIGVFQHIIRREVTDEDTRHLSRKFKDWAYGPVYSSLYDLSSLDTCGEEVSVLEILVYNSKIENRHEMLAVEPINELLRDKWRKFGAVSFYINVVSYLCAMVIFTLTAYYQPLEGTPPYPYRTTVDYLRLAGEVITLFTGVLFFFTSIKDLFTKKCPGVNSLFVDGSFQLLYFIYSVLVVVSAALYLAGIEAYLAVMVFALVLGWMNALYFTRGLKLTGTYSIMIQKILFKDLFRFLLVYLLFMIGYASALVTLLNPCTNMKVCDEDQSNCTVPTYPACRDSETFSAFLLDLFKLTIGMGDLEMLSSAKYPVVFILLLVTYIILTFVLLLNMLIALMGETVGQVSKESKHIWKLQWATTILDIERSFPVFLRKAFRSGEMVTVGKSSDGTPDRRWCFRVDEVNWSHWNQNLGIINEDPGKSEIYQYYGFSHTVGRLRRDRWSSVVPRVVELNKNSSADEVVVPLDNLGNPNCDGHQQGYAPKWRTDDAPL
T2 sequence (Q9HBA0 whole entry): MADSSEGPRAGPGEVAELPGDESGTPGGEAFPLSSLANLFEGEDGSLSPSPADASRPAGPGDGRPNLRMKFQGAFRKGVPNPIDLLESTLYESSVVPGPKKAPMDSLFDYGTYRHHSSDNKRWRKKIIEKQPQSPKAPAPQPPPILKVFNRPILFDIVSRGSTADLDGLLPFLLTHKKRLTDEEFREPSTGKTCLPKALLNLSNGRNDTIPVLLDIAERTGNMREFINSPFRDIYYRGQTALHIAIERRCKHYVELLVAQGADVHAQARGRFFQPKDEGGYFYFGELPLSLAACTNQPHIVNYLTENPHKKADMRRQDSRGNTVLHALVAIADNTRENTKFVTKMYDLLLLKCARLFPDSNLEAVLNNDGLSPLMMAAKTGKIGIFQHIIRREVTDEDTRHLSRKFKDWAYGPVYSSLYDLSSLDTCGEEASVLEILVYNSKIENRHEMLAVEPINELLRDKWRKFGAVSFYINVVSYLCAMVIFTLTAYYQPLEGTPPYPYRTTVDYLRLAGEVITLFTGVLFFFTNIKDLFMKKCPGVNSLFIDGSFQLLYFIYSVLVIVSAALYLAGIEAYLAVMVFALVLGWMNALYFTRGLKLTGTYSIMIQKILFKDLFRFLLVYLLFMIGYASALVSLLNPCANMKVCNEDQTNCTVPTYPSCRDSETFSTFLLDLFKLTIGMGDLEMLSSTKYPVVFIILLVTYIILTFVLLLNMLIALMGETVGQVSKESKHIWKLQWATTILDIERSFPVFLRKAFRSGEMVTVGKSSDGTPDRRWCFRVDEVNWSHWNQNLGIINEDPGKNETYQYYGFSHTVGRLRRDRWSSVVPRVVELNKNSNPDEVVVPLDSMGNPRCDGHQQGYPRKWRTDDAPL

CC(C)C[C@H](NC(=O)c1cc2ccccc2s1)C(=O)N1CCN(C(=O)[C@H](CO)NS(=O)(=O)c2ccc(Cl)cc2Cl)CC1 [GSK101]
agonist effect on [Ca2+]i (TRPV4 [1]; GSK101 100 nM, quiescent mouse PSCs): produced a sustained elevation in [Ca^2+]i
agonist effect on [Ca2+]i (TRPV4 [2]; GSK101 100 nM, quiescent human PSCs): produced a sustained elevation in [Ca^2+]i
agonist effect on [Ca2+]i (TRPV4 [3]; GSK101 50 nM, arachidonic acid 20 μM, 5′,6′-EET 5 μM): induced a significant increase in [Ca^2+]i

O=C(NC1(c2ccccc2)CC1)c1c(CN2CCC(N3CCCCC3)CC2)c(-c2cccc(C(F)(F)F)c2)nc2cc(Br)ccc12 [GSK2193874]
pancreatic cancer (PDAC) growth (KPCY cells): inhibited pancreatic cancer growth
serum SAA levels (KPCY cells): reduced serum SAA levels

Cc1c(C(=O)Nc2cccc(C(F)(F)F)c2)cc(-c2ccccc2)n1CCCN1CCOCC1 [HC067]
effect on GSK1016790A-induced sustained [Ca2+]i elevation (TRPV4 [1]; HC067 1 μM, mouse PSCs): blocked
effect on CCK-stimulated peak or sustained [Ca2+]i (pancreatic acini): did not affect the CCK-stimulated (1 nM) peak or sustained [Ca^2+]i changes
effect on GSK1016790A-induced sustained [Ca2+]i elevation (TRPV4 [2]; HC067 1 μM, human PSCs): blocked
effect on AA- and 5′,6′-EET-induced [Ca2+]i increases (TRPV4 [3]; HC067 100 nM): inhibited
effect on GSK101 (50 nM)-induced [Ca2+]i increase (TRPV4 [3]; HC067 100 nM, RN1734 30 μM): inhibited
effect on shear stress-induced sustained [Ca2+]i elevation (TRPV4 [3]; HC067 1 μM, 12 dyne/cm^2 for 30 seconds): blocked the sustained [Ca^2+]i elevation, leaving only transient alterations in [Ca^2+]i
effect on Yoda1-stimulated sustained [Ca2+]i increase (TRPV4 [3]; HC067 1 μM, Yoda1 25 μM): completely blocked the Yoda1-stimulated (25 μM) sustained increase in [Ca^2+]i
